{
  "source": "paper PMC5845353",
  "about": "“The selective cathepsin K inhibitor MIV-711 attenuates joint pathology in experimental animal models of osteoarthritis” (Journal of Translational Medicine, 2018)",
  "key": {"[1]": {"system": "rabbits subjected to anterior cruciate ligament transection (ACLT)", "test": "Rabbit ACLT study, modified Mankin scoring", "assay_type": "in vivo", "experimental": "The femora and tibias were decalcified, embedded in paraffin, sectioned at 5-7 µm at two different levels separated by approximately 2 mm, and stained with safranin O and toluidine blue.\nBoth tibial plateaus and femoral condyles were subjected to semi-quantitative scoring using a modified Mankin scoring system. Slides were evaluated in animal ID order, i.e. in random order with respect to treatment, so that the reader was effectively blinded to treatment assignment.\nAnalysis was performed on the tibial plateaus and femoral condyles at two levels (Level 1 and 2) for each:\nGroup 1) sham + vehicle; Group 2) ACLT + vehicle; Group 3) ACLT + MIV-711, 30 µmol/kg (low dose) and Group 4) ACLT + MIV-711, 100 µmol/kg (high dose)."}, "plasma proteins": {"system": "plasma proteins", "test": "Fraction bound to plasma proteins, rabbit", "assay_type": "in vitro ADME"}, "[2]": {"test": "Synovial fluid concentrations of MIV-711 in dogs", "assay_type": "in vivo", "conditions": "dog", "experimental": "Synovial fluid was collected from as many dogs as possible immediately before surgery and then again during necropsy from both operated and contralateral knees. The fluid was sampled directly without lavage using a syringe. The synovial fluid was transferred into tubes containing EDTA. The samples were spun in a centrifuge, and the supernatant was collected and stored at − 70 °C until analysis.\nTo measure MIV-711 concentrations, 10–50 µL of plasma or synovial fluid was mixed with 30–150 µL of acetonitrile, samples were centrifuged (10 min, 20,000g, 7 °C) and 5 µL of the supernatant was injected onto the LC–MS/MS system. The lower limit of quantification (LLOQ) was 1 nmol/L."}, "cathepsin K from human": {"target": "cathepsin K from human", "set-up": "method as in PMID 29743078", "conditions": "read-out: Ki against cathepsin K from human; cited from earlier work"}, "CTX-I": {"system": "CTX-I", "test": "Urinary CTX-I in dogs subjected to partial medial meniscectomy", "assay_type": "in vivo", "conditions": "dog, 30 µmol/kg", "experimental": "Dogs subjected to partial medial meniscectomy received either 30 µmol/kg MIV-711 (synthesized by Medivir and given as a suspension in 1% Methocel A4C; n = 15) or vehicle (1% Methocel A4C; n = 15) by orogastric gavage once daily in the morning. […] Dosing started the day before surgery and lasted through Day 28, the day before necropsy. Each dog was fasted for at least 12 h before dosing and food were returned approximately 4 h following test article administration.\nUrine samples were collected from the animals 1 to 3 days before surgery and treatment (baseline sample), 4 to 7 days after the start of treatment (Day 7 sample) and 26 to 28 days after treatment (Day 28 sample). Dogs were housed in metabolic cages overnight during urine collection. […]\nIn rabbits, conventional CTX-I assays to assess bone resorption cannot be used due to species differences. Instead, urinary helical peptide (HP-1) concentrations were measured in rabbits using the MicroVue Helical Peptide kit (Ref: 8022) from Quidel (San Diego, CA) according to the instructions supplied by the manufacturer. In dogs, urinary levels of C-terminal telopeptide of collagen type I (CTX-I) were measured using a commercially available kit (Urine BETA CrossLaps ELISA, Ref: AC-05F1, IDS Nordic Bioscience Diagnostics A/S). […] In dogs, CTX-II levels were also measured in synovial fluid. […]"}, "[3]": {"conditions": "Group 3: ACLT + MIV-711, 30 µmol/kg (low dose)"}, "[4]": {"conditions": "Group 4: ACLT + MIV-711, 100 µmol/kg (high dose)"}},
  "data": [
    {"smiles": "C#C[C@@H]1CN(C(=O)[C@H](CC(C)C)NC(=O)c2ccc(-c3nc(N4CCN(C)CC4)sc3F)cc2)[C@@H]2C(=O)CO[C@H]12", "note": "[MIV-711]", "values": [
      {"measurement": "effect on Mankin scores", "setting": "[1]; ACLT rabbits, 30 and 100 µmol/kg", "value": "did not affect"},
      {"measurement": "Total Mankin score Level 1+2_FC, mean", "setting": "[1]; [3]", "value": 58.86},
      {"measurement": "Total Mankin score Level 1+2_FC, median", "setting": "[1]; [3]", "value": 58.00},
      {"measurement": "Total Mankin score Level 1+2_LFC, mean", "setting": "[1]; [3]", "value": 21.14},
      {"measurement": "Total Mankin score Level 1+2_LFC, median", "setting": "[1]; [3]", "value": 17.00},
      {"measurement": "Total Mankin score Level 1+2_LTP, mean", "setting": "[1]; [3]", "value": 9.71},
      {"measurement": "Total Mankin score Level 1+2_LTP, median", "setting": "[1]; [3]", "value": 10.00},
      {"measurement": "Total Mankin score Level 1+2_MFC, mean", "setting": "[1]; [3]", "value": 37.71},
      {"measurement": "Total Mankin score Level 1+2_MFC, median", "setting": "[1]; [3]", "value": 43.00},
      {"measurement": "Total Mankin score Level 1+2_MTP, mean", "setting": "[1]; [3]", "value": 16.71},
      {"measurement": "Total Mankin score Level 1+2_MTP, median", "setting": "[1]; [3]", "value": 16.00},
      {"measurement": "Total Mankin score Level 1+2_TP, mean", "setting": "[1]; [3]", "value": 26.43},
      {"measurement": "Total Mankin score Level 1+2_TP, median", "setting": "[1]; [3]", "value": 26.00},
      {"measurement": "Total Mankin score Level 1_FC, mean", "setting": "[1]; [3]", "value": 32.14},
      {"measurement": "Total Mankin score Level 1_FC, median", "setting": "[1]; [3]", "value": 32.00},
      {"measurement": "Total Mankin score Level 1_LFC, mean", "setting": "[1]; [3]", "value": 12.00},
      {"measurement": "Total Mankin score Level 1_LFC, median", "setting": "[1]; [3]", "value": 10.00},
      {"measurement": "Total Mankin score Level 1_LTP, mean", "setting": "[1]; [3]", "value": 5.57},
      {"measurement": "Total Mankin score Level 1_LTP, median", "setting": "[1]; [3]", "value": 4.00},
      {"measurement": "Total Mankin score Level 1_MFC, mean", "setting": "[1]; [3]", "value": 20.14},
      {"measurement": "Total Mankin score Level 1_MFC, median", "setting": "[1]; [3]", "value": 23.00},
      {"measurement": "Total Mankin score Level 1_MTP, mean", "setting": "[1]; [3]", "value": 9.86},
      {"measurement": "Total Mankin score Level 1_MTP, median", "setting": "[1]; [3]", "value": 9.00},
      {"measurement": "Total Mankin score Level 1_TP, mean", "setting": "[1]; [3]", "value": 15.43},
      {"measurement": "Total Mankin score Level 1_TP, median", "setting": "[1]; [3]", "value": 16.00},
      {"measurement": "Total Mankin score Level 2_FC, mean", "setting": "[1]; [3]", "value": 26.71},
      {"measurement": "Total Mankin score Level 2_FC, median", "setting": "[1]; [3]", "value": 26.00},
      {"measurement": "Total Mankin score Level 2_LFC, mean", "setting": "[1]; [3]", "value": 9.14},
      {"measurement": "Total Mankin score Level 2_LFC, median", "setting": "[1]; [3]", "value": 7.00},
      {"measurement": "Total Mankin score Level 2_LTP, mean", "setting": "[1]; [3]", "value": 4.14},
      {"measurement": "Total Mankin score Level 2_LTP, median", "setting": "[1]; [3]", "value": 4.00},
      {"measurement": "Total Mankin score Level 2_MFC, mean", "setting": "[1]; [3]", "value": 17.57},
      {"measurement": "Total Mankin score Level 2_MFC, median", "setting": "[1]; [3]", "value": 20.00},
      {"measurement": "Total Mankin score Level 2_MTP, mean", "setting": "[1]; [3]", "value": 6.86},
      {"measurement": "Total Mankin score Level 2_MTP, median", "setting": "[1]; [3]", "value": 6.00},
      {"measurement": "Total Mankin score Level 2_TP, mean", "setting": "[1]; [3]", "value": 11.00},
      {"measurement": "Total Mankin score Level 2_TP, median", "setting": "[1]; [3]", "value": 12.00},
      {"measurement": "Total Mankin score Level 1+2_FC, mean", "setting": "[1]; [4]", "value": 49.71},
      {"measurement": "Total Mankin score Level 1+2_FC, median", "setting": "[1]; [4]", "value": 51.00},
      {"measurement": "Total Mankin score Level 1+2_LFC, mean", "setting": "[1]; [4]", "value": 21.14},
      {"measurement": "Total Mankin score Level 1+2_LFC, median", "setting": "[1]; [4]", "value": 21.00},
      {"measurement": "Total Mankin score Level 1+2_LTP, mean", "setting": "[1]; [4]", "value": 12.71},
      {"measurement": "Total Mankin score Level 1+2_LTP, median", "setting": "[1]; [4]", "value": 12.00},
      {"measurement": "Total Mankin score Level 1+2_MFC, mean", "setting": "[1]; [4]", "value": 28.57},
      {"measurement": "Total Mankin score Level 1+2_MFC, median", "setting": "[1]; [4]", "value": 27.00},
      {"measurement": "Total Mankin score Level 1+2_MTP, mean", "setting": "[1]; [4]", "value": 17.43},
      {"measurement": "Total Mankin score Level 1+2_MTP, median", "setting": "[1]; [4]", "value": 14.00},
      {"measurement": "Total Mankin score Level 1+2_TP, mean", "setting": "[1]; [4]", "value": 30.14},
      {"measurement": "Total Mankin score Level 1+2_TP, median", "setting": "[1]; [4]", "value": 27.00},
      {"measurement": "Total Mankin score Level 1_FC, mean", "setting": "[1]; [4]", "value": 25.43},
      {"measurement": "Total Mankin score Level 1_FC, median", "setting": "[1]; [4]", "value": 29.00},
      {"measurement": "Total Mankin score Level 1_LFC, mean", "setting": "[1]; [4]", "value": 10.57},
      {"measurement": "Total Mankin score Level 1_LFC, median", "setting": "[1]; [4]", "value": 10.00},
      {"measurement": "Total Mankin score Level 1_LTP, mean", "setting": "[1]; [4]", "value": 6.29},
      {"measurement": "Total Mankin score Level 1_LTP, median", "setting": "[1]; [4]", "value": 7.00},
      {"measurement": "Total Mankin score Level 1_MFC, mean", "setting": "[1]; [4]", "value": 14.86},
      {"measurement": "Total Mankin score Level 1_MFC, median", "setting": "[1]; [4]", "value": 15.00},
      {"measurement": "Total Mankin score Level 1_MTP, mean", "setting": "[1]; [4]", "value": 9.29},
      {"measurement": "Total Mankin score Level 1_MTP, median", "setting": "[1]; [4]", "value": 8.00},
      {"measurement": "Total Mankin score Level 1_TP, mean", "setting": "[1]; [4]", "value": 15.57},
      {"measurement": "Total Mankin score Level 1_TP, median", "setting": "[1]; [4]", "value": 16.00},
      {"measurement": "Total Mankin score Level 2_FC, mean", "setting": "[1]; [4]", "value": 24.29},
      {"measurement": "Total Mankin score Level 2_FC, median", "setting": "[1]; [4]", "value": 23.00},
      {"measurement": "Total Mankin score Level 2_LFC, mean", "setting": "[1]; [4]", "value": 10.57},
      {"measurement": "Total Mankin score Level 2_LFC, median", "setting": "[1]; [4]", "value": 10.00},
      {"measurement": "Total Mankin score Level 2_LTP, mean", "setting": "[1]; [4]", "value": 6.43},
      {"measurement": "Total Mankin score Level 2_LTP, median", "setting": "[1]; [4]", "value": 6.00},
      {"measurement": "Total Mankin score Level 2_MFC, mean", "setting": "[1]; [4]", "value": 13.71},
      {"measurement": "Total Mankin score Level 2_MFC, median", "setting": "[1]; [4]", "value": 13.00},
      {"measurement": "Total Mankin score Level 2_MTP, mean", "setting": "[1]; [4]", "value": 8.14},
      {"measurement": "Total Mankin score Level 2_MTP, median", "setting": "[1]; [4]", "value": 7.00},
      {"measurement": "Total Mankin score Level 2_TP, mean", "setting": "[1]; [4]", "value": 14.57},
      {"measurement": "Total Mankin score Level 2_TP, median", "setting": "[1]; [4]", "value": 14.00},
      {"measurement": "fraction bound to plasma proteins", "setting": "plasma proteins", "value": 92, "unit": "%"},
      {"measurement": "MIV-711 levels in synovial fluid", "setting": "[2]; 24 h after first dose and 24 h after last dose of 30 µmol/kg", "value": "low but measurable"},
      {"measurement": "MIV-711 levels in synovial fluid, injured left knee compared to right knee", "setting": "[2]; at sacrifice, 24 h after last dose of 30 µmol/kg", "value": "fivefold higher"},
      {"measurement": "Ki", "setting": "cathepsin K from human", "value": 0.98, "unit": "nM"},
      {"measurement": "urinary CTX-I levels reduced by", "setting": "CTX-I; Day 7, vs. baseline", "value": 78, "unit": "%"},
      {"measurement": "urinary CTX-I levels reduced by", "setting": "CTX-I; Day 28, vs. baseline", "value": 86, "unit": "%"}
    ]}
  ]
}
